In patent publication US20060122153A1, “Antineoplastic ether lipid compounds with modifications at the sn-2 carbon” (priority 2003, published 2006):

Key:
[1] = test system: DU145; experiment: NCI growth inhibition screen, prostate panel; type: cell-based, human; set-up: key: = means equivalent activity; + means that it appears to be significantly better (i.e., by ˜2x); < means it appears to be less active than ET18OCH3 (˜2x); a combination like =/+ or </+ means that activity is dependent upon the isomer; a combination like =/+ or </+ means that activity is dependent upon the isomer; conditions: from GI50s
Description: (§1) Candidates deemed suitable for in vivo testing were then synthesized in large scale quantities and some of this material was sent to the NCI's Developmental Therapeutics Program for a battery of growth inhibitory studies against various human tumor cell lines (60 cell lines, 9 different panels). The remainder of the material was used to assess in vivo efficacy using murine tumor models. Additionally, studies were conducted on the lead candidates to discern mechanism of action with particular emphasis on these agents apoptotic ability as measured by caspase 3 activity. The details (materials and methods) for these various assays are described further in the following discussion.
(§2) Ten compounds were also sent to NCI's Drug Discovery Program for screening against numerous human tumor cell lines (9 panels total: renal ovarian, colon, CNS, non-small cell lung, leukemia, breast, melanoma, and prostate). The data are shown in FIGS. 2a-i which also include data regarding D- and L-ET-18-OCH3 (listed as L-EL and D-EL in the figures). Upon examining the data, one is struck by how 1R and 1a′S standout in comparison to the other compounds, especially for the renal, ovarian, colon, and CNS panels.

[2] = test system: PC-3; experiment: NCI growth inhibition screen, prostate panel; type: cell-based, human; set-up: key: = means equivalent activity; + means that it appears to be significantly better (i.e., by ˜2x); < means it appears to be less active than ET18OCH3 (˜2x); a combination like =/+ or </+ means that activity is dependent upon the isomer; a combination like =/+ or </+ means that activity is dependent upon the isomer; conditions: PC-3, Prostate; from GI50s
Description: as §1, §2

[3] = test system: SF-295; experiment: NCI growth inhibition screen, CNS panel; type: cell-based, human; set-up: key: = means equivalent activity; + means that it appears to be significantly better (i.e., by ˜2x); < means it appears to be less active than ET18OCH3 (˜2x); a combination like =/+ or </+ means that activity is dependent upon the isomer; a combination like =/+ or </+ means that activity is dependent upon the isomer; conditions: SF-295, CNS; from GI50s
Description: as §1, §2

[4] = test system: SNB-19; experiment: NCI growth inhibition screen, CNS panel; type: cell-based, human; set-up: key: = means equivalent activity; + means that it appears to be significantly better (i.e., by ˜2x); < means it appears to be less active than ET18OCH3 (˜2x); a combination like =/+ or </+ means that activity is dependent upon the isomer; a combination like =/+ or </+ means that activity is dependent upon the isomer; conditions: SNB-19, CNS; from GI50s
Description: as §1, §2

[5] = test system: SF-539; experiment: NCI growth inhibition screen, CNS panel; type: cell-based, human; set-up: key: = means equivalent activity; + means that it appears to be significantly better (i.e., by ˜2x); < means it appears to be less active than ET18OCH3 (˜2x); a combination like =/+ or </+ means that activity is dependent upon the isomer; a combination like =/+ or </+ means that activity is dependent upon the isomer; conditions: SF-539, CNS; from GI50s
Description: as §1, §2

[6] = test system: SF-268; experiment: NCI growth inhibition screen, CNS panel; type: cell-based, human; set-up: key: = means equivalent activity; + means that it appears to be significantly better (i.e., by ˜2x); < means it appears to be less active than ET18OCH3 (˜2x); a combination like =/+ or </+ means that activity is dependent upon the isomer; a combination like =/+ or </+ means that activity is dependent upon the isomer; conditions: SF-268, CNS; from GI50s
Description: as §1, §2

[7] = test system: U-251; experiment: NCI growth inhibition screen, CNS panel; type: cell-based, human; set-up: key: = means equivalent activity; + means that it appears to be significantly better (i.e., by ˜2x); < means it appears to be less active than ET18OCH3 (˜2x); a combination like =/+ or </+ means that activity is dependent upon the isomer; a combination like =/+ or </+ means that activity is dependent upon the isomer; conditions: U-251, CNS; from GI50s
Description: as §1, §2

[8] = test system: ACHIN; experiment: NCI growth inhibition screen, renal panel; type: cell-based, human; set-up: key: = means equivalent activity; + means that it appears to be significantly better (i.e., by ˜2x); < means it appears to be less active than ET18OCH3 (˜2x); a combination like =/+ or </+ means that activity is dependent upon the isomer; a combination like =/+ or </+ means that activity is dependent upon the isomer; conditions: from GI50s
Description: as §1, §2

[9] = test system: HL-60; experiment: NCI growth inhibition screen, leukemia panel; type: cell-based, human; set-up: key: = means equivalent activity; + means that it appears to be significantly better (i.e., by ˜2x); < means it appears to be less active than ET18OCH3 (˜2x); a combination like =/+ or </+ means that activity is dependent upon the isomer; a combination like =/+ or </+ means that activity is dependent upon the isomer; conditions: HL-60, Leukemia; from GI50s
Description: as §1, §2

[10] = test system: MOLT-4; experiment: NCI growth inhibition screen, leukemia panel; type: cell-based, human; set-up: key: = means equivalent activity; + means that it appears to be significantly better (i.e., by ˜2x); < means it appears to be less active than ET18OCH3 (˜2x); a combination like =/+ or </+ means that activity is dependent upon the isomer; a combination like =/+ or </+ means that activity is dependent upon the isomer; conditions: MOLT-4, Leukemia; from GI50s
Description: as §1, §2

[11] = test system: CCRF-CEM; experiment: NCI growth inhibition screen, leukemia panel; type: cell-based, human; set-up: key: = means equivalent activity; + means that it appears to be significantly better (i.e., by ˜2x); < means it appears to be less active than ET18OCH3 (˜2x); a combination like =/+ or </+ means that activity is dependent upon the isomer; a combination like =/+ or </+ means that activity is dependent upon the isomer; conditions: from GI50s
Description: as §1, §2

[12] = test system: B16/F10 melanoma; experiment: B16/F10 murine melanoma (iv./iv.) therapeutic model; type: in vivo, mice; conditions: iv. treatment, lung tumor nodules
Description: Female C57/BL6 mice (5/group) were inoculated iv. with 5×10^4 cells in 0.2 mL PBS (day 0). On days 10, 12, 14, 16, & 18 post-tumor inoculation, mice were treated iv. with the ether lipid to be tested, along with ELL-12 (L), D-EL, L-EL or Control (0.9% NaCl). Mice were sacrificed by carbon dioxide inhalation on day 22, lungs were excised, inflated and fixed with 10% Formalin. Lungs were counted “blind” for tumor nodules using a magnifier. The mean number of nodules per treatment group was determined.

SMILES	Performance as compared to ET-18-O—CH3 [1]	Performance as compared to ET-18-O—CH3 [2]	Performance as compared to ET-18-O—CH3 [3]	Performance as compared to ET-18-O—CH3 [4]	Performance as compared to ET-18-O—CH3 [5]	Performance as compared to ET-18-O—CH3 [6]	Performance as compared to ET-18-O—CH3 [7]	Performance as compared to ET-18-O—CH3 [8]	Performance as compared to ET-18-O—CH3 [9]	Performance as compared to ET-18-O—CH3 [10]	Performance as compared to ET-18-O—CH3 [11]	activity against B16/F10 in mice (in words) [12]
CCCCCCCCCCCCCCCCCCOC[C@@H](COP(=O)([O-])OCC[N+](C)(C)C)OS(C)(=O)=O [1a′S]	0	0	0	0	8192	0	=/+	0	0	0	0	exhibited activity
CCCCCCCCCCCCCCCCCCOCC(COP(=O)([O-])OCC[N+](C)(C)C)OS(C)(=O)=O (stereo not drawn) [Compound 1aR]	=	=	=	=	+	=	+	=	=	=	=	no activity
